The subject of one assay is Cryptococcus neoformans. In words: Antifungal activity against Cryptococcus neoformans ATCC 24067 assessed as inhibition of fungal growth incubated for 24 to 48 hrs by CLSI based broth microdilution method. Format: functional. The note with it: time 24-48 hrs.
The nature of assay [1]: Antifungal activity against Cryptococcus gattii ATCC 24065 assessed as inhibition of fungal growth incubated for 24 to 48 hrs by CLSI protocol based broth microdilution method. Format: functional, Cryptococcus gattii VGI. Conditions: time 24-48 hrs.
In a further assay the test system is Candida albicans. In words: Antifungal activity against Candida albicans SC5314 assessed as inhibition of fungal growth incubated for 24 to 48 hrs by CLSI protocol based broth microdilution method. Format: functional. The note with it: time 24-48 hrs.
The subject of the next assay is Nakaseomyces glabratus. In words: Antifungal activity against Candida glabrata ATCC 2001 assessed as inhibition of fungal growth incubated for 24 to 48 hrs by CLSI protocol based broth microdilution method. Format: functional. The note with it: time 24-48 hrs.
A further assay has as its system Pichia kudriavzevii. In words: Antifungal activity against Candida krusei ATCC 20298 assessed as inhibition of fungal growth incubated for 24 to 48 hrs by CLSI protocol based broth microdilution method. Format: functional. Conditions: time 24-48 hrs.
The test system of the next assay is Candida parapsilosis. In words: Antifungal activity against Candida parapsilosis ATCC 22019 assessed as inhibition of fungal growth incubated for 24 to 48 hrs by CLSI protocol based broth microdilution method. The note with it: Lodderomyces parapsilosis, time 24-48 hrs. Format: functional.
For the next assay, the system named is Candida tropicalis. In words: Antifungal activity against Candida tropicalis ATCC 750 assessed as inhibition of fungal growth incubated for 24 to 48 hrs by CLSI protocol based broth microdilution method. Format: functional. Conditions: time 24-48 hrs.
Another assay relates to [Candida] auris. In words: Antifungal activity against Candida auris COLO 01 assessed as inhibition of fungal growth incubated for 24 to 48 hrs by CLSI protocol based broth microdilution method. Format: functional. The note with it: Candidozyma auris, time 24-48 hrs.

In brackets after ≈: the same amount, converted by molar mass.

Regarding `CCOC(=O)/C(C)=N/Nc1nc(-c2ccccc2)cs1`, the MIC (in the assay with Cryptococcus neoformans; in assay [1]; in the assay with Candida albicans; in the assay with Nakaseomyces glabratus; with Pichia kudriavzevii; in the assay with Candida parapsilosis) was above 125 µM in each case. Moreover, the MIC (in the assay on Candida tropicalis; in assay [Candida] auris) was above 125 µM throughout.
`C/C(=N\Nc1nc(-c2ccc(C)cc2)cs1)C(=O)O`: the minimal inhibitory concentration (MIC) with Candida albicans worked out at 14.2 µM (≈ 3.91 µg/mL); in the assay with Pichia kudriavzevii, 28.4 µM (≈ 7.82 µg/mL); with Candida tropicalis, 114 µM (≈ 31.3 µg/mL); in assay [Candida] auris, 14.2 µM (≈ 3.91 µg/mL).
Regarding `CCOC(=O)Cc1csc(NN=C(C)C(=O)O)n1`, the MIC was above 125 µM with Cryptococcus neoformans; above 125 µM in assay [1]; 57.6 µM (≈ 15.6 µg/mL) in the assay with Candida albicans; 28.8 µM (≈ 7.81 µg/mL) with Pichia kudriavzevii; above 125 µM with Candida tropicalis; 57.6 µM (≈ 15.6 µg/mL) in assay [Candida] auris.
`CCOC(=O)/C(C)=N/Nc1nc(-c2ccc(OC)cc2)cs1`: the MIC (in the assay with Cryptococcus neoformans; in assay [1]; in the assay with Candida albicans; in the assay with Nakaseomyces glabratus; with Pichia kudriavzevii; with Candida parapsilosis) was above 125 µM in each case. The MIC (in the assay on Candida tropicalis; in assay [Candida] auris) was above 125 µM throughout.
For `C/C(CCC(=O)O)=N\Nc1nc(-c2ccc(Cl)cc2)cs1`, the MIC was determined as 3 µM (≈ 0.971 µg/mL) in the assay on Cryptococcus neoformans; 1.5 µM (≈ 0.486 µg/mL) in assay [1]; 1.5 µM (≈ 0.486 µg/mL) in the assay on Candida albicans; 96.5 µM (≈ 31.2 µg/mL) with Nakaseomyces glabratus; 1.5 µM (≈ 0.486 µg/mL) in the assay on Pichia kudriavzevii; 6 µM (≈ 1.94 µg/mL) with Candida parapsilosis. The values for the MIC (in the assay with Candida tropicalis; in assay [Candida] auris) were 6 µM (≈ 1.94 µg/mL) and 0.7 µM (≈ 0.227 µg/mL), respectively.
Consider `C/C(=N\Nc1nc(-c2ccccc2)cs1)C(=O)O`, for which the MIC with Candida albicans was 29.9 µM (≈ 7.81 µg/mL); in the assay on Pichia kudriavzevii it was 29.9 µM (≈ 7.81 µg/mL); in the assay with Candida tropicalis, 59.8 µM (≈ 15.6 µg/mL); in assay [Candida] auris, 29.9 µM (≈ 7.81 µg/mL).
Turning to `C/C(CCC(=O)O)=N\Nc1nc(-c2ccc(Br)cc2)cs1`, the MIC in the assay with Cryptococcus neoformans was determined as 2.6 µM (≈ 0.957 µg/mL); in assay [1], 1.3 µM (≈ 0.479 µg/mL); in the assay on Candida albicans, 0.3 µM (≈ 0.11 µg/mL); in the assay with Nakaseomyces glabratus, 42.4 µM (≈ 15.6 µg/mL); in the assay on Pichia kudriavzevii, 1.3 µM (≈ 0.479 µg/mL); in the assay on Candida parapsilosis, 1.3 µM (≈ 0.479 µg/mL). Further, the MIC in the assay with Candida tropicalis was determined as 2.6 µM (≈ 0.957 µg/mL); in assay [Candida] auris, 0.3 µM (≈ 0.11 µg/mL).
Regarding `COc1ccc(-c2csc(N/N=C(\C)CCC(=O)O)n2)cc1`, the MIC with Cryptococcus neoformans was determined as 0.8 µM (≈ 0.256 µg/mL); in assay [1], 0.2 µM (≈ 0.0639 µg/mL); with Candida albicans it was 3 µM (≈ 0.958 µg/mL); in the assay on Nakaseomyces glabratus, 48.9 µM (≈ 15.6 µg/mL); in the assay with Pichia kudriavzevii it was 1.5 µM (≈ 0.479 µg/mL); in the assay with Candida parapsilosis, 3 µM (≈ 0.958 µg/mL). The MIC in the assay on Candida tropicalis was 6.1 µM (≈ 1.95 µg/mL); in assay [Candida] auris it was 1.5 µM (≈ 0.479 µg/mL).
`C/C(=N\Nc1nc(-c2ccc(Br)cc2)cs1)C(=O)O`: the MIC in the assay on Cryptococcus neoformans was found to be 2.4 µM (≈ 0.816 µg/mL); in assay [1] it was 2.4 µM (≈ 0.816 µg/mL); in the assay on Candida albicans, 23 µM (≈ 7.82 µg/mL); with Pichia kudriavzevii, 23 µM (≈ 7.82 µg/mL); in the assay on Candida tropicalis, 91.9 µM (≈ 31.3 µg/mL); in assay [Candida] auris, 23 µM (≈ 7.82 µg/mL).
As to `CCOC(=O)/C(C)=N/Nc1nc(-c2ccc(Cl)cc2)cs1`, the MIC (in the assay with Cryptococcus neoformans; in assay [1]; with Candida albicans; with Nakaseomyces glabratus; in the assay with Pichia kudriavzevii; with Candida parapsilosis) was above 125 µM in each case. Further, the MIC (with Candida tropicalis; in assay [Candida] auris) was above 125 µM each time.
On to `C/C(=N\Nc1nc(-c2ccc(C#N)cc2)cs1)C(=O)O`, for which the MIC was 22 µM (≈ 6.3 µg/mL) in the assay on Cryptococcus neoformans; 175 µM (≈ 50 µg/mL) in assay [1]; 109 µM (≈ 31.3 µg/mL) with Candida albicans; 109 µM (≈ 31.3 µg/mL) with Pichia kudriavzevii; above 125 µM with Candida tropicalis; 13.7 µM (≈ 3.92 µg/mL) in assay [Candida] auris.
On to `COc1ccc(-c2csc(N/N=C(\C)C(=O)O)n2)cc1`, for which the MIC was 26.8 µM (≈ 7.81 µg/mL) in the assay on Candida albicans, 56.6 µM (≈ 16.5 µg/mL) in the assay on Pichia kudriavzevii, 56.6 µM (≈ 16.5 µg/mL) in the assay with Candida tropicalis and 13.4 µM (≈ 3.9 µg/mL) in assay [Candida] auris.
With `C/C(=N\Nc1nc(-c2ccc(F)cc2)cs1)C(=O)O`, the MIC in the assay with Cryptococcus neoformans was determined as 11.1 µM (≈ 3.1 µg/mL); in assay [1], 5.7 µM (≈ 1.59 µg/mL); with Candida albicans, 28 µM (≈ 7.82 µg/mL); in the assay on Pichia kudriavzevii, 28 µM (≈ 7.82 µg/mL); with Candida tropicalis it was 112 µM (≈ 31.3 µg/mL); in assay [Candida] auris, 7 µM (≈ 1.96 µg/mL).
On to `C/C(=N\Nc1nc(-c2ccc(Cl)cc2)cs1)C(=O)O`, for which the MIC in the assay on Cryptococcus neoformans stood at 5.4 µM (≈ 1.6 µg/mL); in assay [1] it was 5.4 µM (≈ 1.6 µg/mL); with Candida albicans, 26.4 µM (≈ 7.81 µg/mL); in the assay with Pichia kudriavzevii, 26.4 µM (≈ 7.81 µg/mL); with Candida tropicalis it was 106 µM (≈ 31.3 µg/mL); in assay [Candida] auris it was 6.6 µM (≈ 1.95 µg/mL).
For `C/C(CCC(=O)O)=N\Nc1nc(-c2ccc(C#N)cc2)cs1`, the MIC in the assay with Cryptococcus neoformans came out at 1.5 µM (≈ 0.472 µg/mL); in assay [1], 1.5 µM (≈ 0.472 µg/mL); with Candida albicans, 3.1 µM (≈ 0.975 µg/mL); in the assay with Nakaseomyces glabratus, 49.7 µM (≈ 15.6 µg/mL); in the assay with Pichia kudriavzevii it was 1.5 µM (≈ 0.472 µg/mL); in the assay with Candida parapsilosis it was 6.2 µM (≈ 1.95 µg/mL). The MIC in the assay on Candida tropicalis was 24.8 µM (≈ 7.8 µg/mL); in assay [Candida] auris it was 0.8 µM (≈ 0.251 µg/mL).
For the molecule `CCOC(=O)C(C)=NNc1nc(-c2ccc(F)cc2)cs1`, the MIC was above 125 µM in the assay on Cryptococcus neoformans; above 125 µM in assay [1]; above 125 µM in the assay on Candida albicans; above 125 µM in the assay on Nakaseomyces glabratus; 102 µM (≈ 31.3 µg/mL) with Pichia kudriavzevii; above 125 µM with Candida parapsilosis. Besides, the MIC in the assay with Candida tropicalis is above 125 µM; in assay [Candida] auris, 50.8 µM (≈ 15.6 µg/mL).
As for `C/C(CCC(=O)O)=N\Nc1nc(-c2ccc(F)cc2)cs1`, the MIC worked out at 3.2 µM (≈ 0.984 µg/mL) with Cryptococcus neoformans; 3.2 µM (≈ 0.984 µg/mL) in assay [1]; 3.2 µM (≈ 0.984 µg/mL) in the assay with Candida albicans; 50.8 µM (≈ 15.6 µg/mL) with Nakaseomyces glabratus; 1.6 µM (≈ 0.492 µg/mL) in the assay on Pichia kudriavzevii; 1.6 µM (≈ 0.492 µg/mL) in the assay on Candida parapsilosis. The MIC was determined as 6.3 µM (≈ 1.94 µg/mL) in the assay with Candida tropicalis and 0.8 µM (≈ 0.246 µg/mL) in assay [Candida] auris.
As to `C/C(CCC(=O)O)=N\Nc1nc(-c2ccccc2)cs1`, the MIC was determined as 6.7 µM (≈ 1.94 µg/mL) with Cryptococcus neoformans; 6.7 µM (≈ 1.94 µg/mL) in assay [1]; 3.4 µM (≈ 0.984 µg/mL) in the assay with Candida albicans; 1.7 µM (≈ 0.492 µg/mL) with Nakaseomyces glabratus; 13.5 µM (≈ 3.91 µg/mL) with Pichia kudriavzevii; 13.5 µM (≈ 3.91 µg/mL) with Candida parapsilosis. Besides, the MIC (in the assay on Candida tropicalis; in assay [Candida] auris) was 3.4 µM (≈ 0.984 µg/mL) throughout.
On to `CCOC(=O)/C(C)=N/Nc1nc(-c2ccc(C#N)cc2)cs1`, for which the MIC in the assay with Cryptococcus neoformans is 49.7 µM (≈ 15.6 µg/mL); in assay [1], 24.8 µM (≈ 7.8 µg/mL); with Candida albicans, 49.7 µM (≈ 15.6 µg/mL); in the assay with Pichia kudriavzevii, 99.4 µM (≈ 31.2 µg/mL); in the assay on Candida parapsilosis, 24.8 µM (≈ 7.8 µg/mL); in the assay with Candida tropicalis it was above 125 µM. The MIC in assay [Candida] auris was determined as 24.8 µM (≈ 7.8 µg/mL).
As for `C/C(CCC(=O)O)=N\Nc1nc(-c2ccc(C)cc2)cs1`, the MIC was 0.7 µM (≈ 0.212 µg/mL) with Cryptococcus neoformans; 0.3 µM (≈ 0.091 µg/mL) in assay [1]; 6.4 µM (≈ 1.94 µg/mL) in the assay on Candida albicans; 6.4 µM (≈ 1.94 µg/mL) in the assay with Pichia kudriavzevii; 51.4 µM (≈ 15.6 µg/mL) in the assay on Candida tropicalis; 3.2 µM (≈ 0.971 µg/mL) in assay [Candida] auris.
Regarding `CCOC(=O)/C(C)=N/Nc1nc(-c2ccc(Br)cc2)cs1`, the MIC with Cryptococcus neoformans was found to be 84.9 µM (≈ 31.3 µg/mL); in assay [1], 84.9 µM (≈ 31.3 µg/mL); with Candida albicans, 84.9 µM (≈ 31.3 µg/mL); with Nakaseomyces glabratus, 21.2 µM (≈ 7.81 µg/mL); in the assay on Pichia kudriavzevii, 10.6 µM (≈ 3.9 µg/mL); in the assay on Candida parapsilosis, 84.9 µM (≈ 31.3 µg/mL). The MIC (in the assay on Candida tropicalis; in assay [Candida] auris) was 21.2 µM (≈ 7.81 µg/mL) throughout.
As to `CC[C@H](C)C[C@H](C)CCCCCCCCC(=O)N[C@H]1C[C@@H](O)[C@@H](NCCN)NC(=O)[C@@H]2[C@@H](O)CCN2C(=O)[C@H]([C@H](O)CCN)NC(=O)[C@H]([C@H](O)[C@@H](O)c2ccc(O)cc2)NC(=O)[C@@H]2C[C@@H](O)CN2C(=O)[C@H]([C@@H](C)O)NC1=O` [CASPOFUNGIN], in assay [Candida] auris, the MIC was 0.1 µM (≈ 0.109 µg/mL).
Take `OC(Cn1cncn1)(Cn1cncn1)c1ccc(F)cc1F` [FLUCONAZOLE]: the MIC was determined as 52.2 µM (≈ 16 µg/mL) in assay [1]; 1.6 µM (≈ 0.49 µg/mL) with Candida albicans; 13.1 µM (≈ 4.01 µg/mL) with Nakaseomyces glabratus; 104 µM (≈ 32 µg/mL) in the assay on Pichia kudriavzevii; 3.3 µM (≈ 1.01 µg/mL) in the assay with Candida parapsilosis; 0.8 µM (≈ 0.245 µg/mL) in the assay on Candida tropicalis.

For the origin of these results see ChEMBL document CHEMBL5375986, “Discovery of Lead 2-Thiazolylhydrazones with Broad-Spectrum and Potent Antifungal Activity” (J Med Chem, 2023).
